From patent US4059622A, “Alkanolamine derivatives” (Imperial Chemical Industries Limited, priority 1970, dated 1977)

Target: T1, cardiac β-receptors (Felis catus, UniProt Q9TST6)
T1 construct: bodyweight of isoprenaline into a chloralose-anaesthetised cat; from tissue; host or cells: heart of the living chloralose-anaesthetised cat (in vivo)
Assay: inhibition of the tachycardia produced by injection of 0.2 μg/kg isoprenaline into a chloralose-anaesthetised cat (β-adrenergic blocking activity)
Type: in vivo
Conditions: cat, read-out: ED50, Compound A
Procedure: The comparison of the β-adrenergic blocking activity of compounds of the present invention with those of the said prior specification may be carried out using a test standard in the art, namely the inhibition of the tachycardia produced by the injection of 0.2 μg. per kg. bodyweight of isoprenaline into a chloralose-anaesthetised cat.

T1 sequence (Q9TST6 whole entry): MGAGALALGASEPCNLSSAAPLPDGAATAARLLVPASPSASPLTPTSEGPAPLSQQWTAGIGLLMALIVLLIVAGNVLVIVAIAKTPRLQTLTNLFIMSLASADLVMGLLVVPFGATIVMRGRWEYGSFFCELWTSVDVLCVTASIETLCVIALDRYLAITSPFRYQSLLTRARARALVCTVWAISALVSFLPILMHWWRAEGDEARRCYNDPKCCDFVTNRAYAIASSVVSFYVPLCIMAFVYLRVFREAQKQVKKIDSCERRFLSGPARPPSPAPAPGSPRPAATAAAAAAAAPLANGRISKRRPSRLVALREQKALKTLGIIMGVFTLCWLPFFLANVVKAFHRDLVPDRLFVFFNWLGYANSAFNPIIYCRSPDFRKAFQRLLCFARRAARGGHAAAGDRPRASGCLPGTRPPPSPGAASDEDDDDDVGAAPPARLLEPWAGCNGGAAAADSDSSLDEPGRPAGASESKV

`CC(C)NCC(O)COc1ccc(CC(N)=O)cc1` (stereo not shown) [Compound A, R^1 isopropyl, R^2 H, reference compound] was tested, and the ED50 was 0.096 mg/kg.

Same assay, conditions: inhibition of tachycardia by 0.2 μg/kg isoprenaline, chloralose-anaesthetised cat; per kg bodyweight; read-out: 50% inhibitory dose (ED50), β-adrenergic blocking activity

Compared with `CC(=O)Nc1ccc(OCC(O)CNC(C)C)cc1` (stereo not shown) [practolol, reference compound], `CC(C)NCC(O)COc1ccccc1CC(N)=O` (stereo not shown) [1-o-carbamoylmethylphenoxy-3-isopropylaminopropan-2-ol, reference compound] is 2.4-fold higher in ED50: roughly 0.2 mg/kg for the first, 0.481 mg/kg for the second.

`CC(C)NCC(O)COc1ccccc1OCC(N)=O` (stereo not shown) [Compound B, R^1 isopropyl, R^3 H, 1-isopropylamino-3-(o-carbamoylmethoxyphenoxy)propan-2-ol] gave an ED50 of 0.058 mg/kg.

Same assay, conditions: ortho-substituted compounds of the invention; chloralose-anaesthetised cat, isoprenaline 0.2 μg/kg; read-out: ED50, Compound B

Going from `C=CCNC(=O)COc1ccccc1OCC(O)CNC(C)C` (stereo not shown) [Compound B, R^1 isopropyl, R^3 allyl, 1-isopropylamino-3-(o-N-allylcarbamoylmethoxyphenoxy)propan-2-ol] to `CNC(=O)COc1ccccc1OCC(O)CNC(C)C` (stereo not shown) [Compound B, R^1 isopropyl, R^3 methyl, 1-isopropylamino-3-(o-N-methylcarbamoylmethoxyphenoxy)propan-2-ol], the ED50 falls from 0.034 mg/kg to 0.02 mg/kg (1.7-fold).

First: CC(C)NCC(O)COc1ccccc1OCC(=O)NC(C)C (stereo not shown) [Compound B, R^1 isopropyl, R^3 isopropyl, 1-isopropylamino-3-(o-N-isopropylcarbamoylmethoxyphenoxy)propan-2-ol]
Second: CC(C)NCC(O)COc1ccccc1OCC(N)=O (stereo not shown) [Compound B, R^1 isopropyl, R^3 H, 1-isopropylamino-3-(o-carbamoylmethoxyphenoxy)propan-2-ol]
The ED50 of the first is 3.4-fold higher: 0.2 mg/kg for the first, 0.058 mg/kg for the second.

First: CC(C)(C)NCC(O)COc1ccccc1OCC(N)=O (stereo not shown) [Compound B, R^1 t-butyl, R^3 H, 1t-butylamino-3-(o-carbamoylmethoxyphenoxy)propan-2-ol]
Second: CCCCNC(=O)COc1ccccc1OCC(O)CNC(C)C (stereo not shown) [Compound B, R^1 isopropyl, R^3 n-butyl]
The ED50 of the first is 13-fold lower: 0.011 mg/kg for the first, 0.143 mg/kg for the second.

Same assay, conditions: other highly active compounds of the invention; chloralose-anaesthetised cat, isoprenaline 0.2 μg/kg; read-out: ED50

Going from `CCNC(=O)COc1ccccc1OCC(O)CNC(C)C` (stereo not shown) [R^1 isopropyl, R^3 ethyl, 1-isopropylamino-3-(o-N-ethylcarbamoylmethoxyphenoxy)propan-2-ol] to `CC(C)NCC(O)COc1ccccc1OCC(=O)NCCO` (stereo not drawn) [R^1 isopropyl, R^3 2-hydroxyethyl, 1-o-(N-β-hydroxyethylcarbamoylmethoxy)phenoxy-3-isopropylamino-2-propanol], the ED50 falls from 0.068 mg/kg to 0.009 mg/kg (7.6-fold).

Compared with `C=CCNC(=O)COc1ccccc1OCC(O)CNC(C)(C)C` (stereo not shown) [R^1 t-butyl, R^3 allyl, 1-t-butylamino-3-(o-N-allylcarbamoylmethoxyphenoxy)propan-2-ol], `CCNC(=O)COc1ccccc1OCC(O)CNC(C)(C)C` (stereo not shown) [R^1 t-butyl, R^3 ethyl, 1-t-butylamino-3-(o-N-ethylcarbamoylmethoxyphenoxy)propan-2-ol] is 1.5-fold lower in ED50: 0.027 mg/kg for the first, 0.018 mg/kg for the second.

Compared with `CC(C)(C)NCC(O)COc1ccccc1OCC(=O)NCCCO` (stereo not shown) [R^1 t-butyl, R^3 3-hydroxypropyl, 1-o-(N-γ-hydroxypropylcarbamoyl-methoxy)phenoxy-3-t-butylamino-2-propanol], `CC(C)(C)NCC(O)COc1ccccc1OCC(=O)NCCO` (stereo not drawn) [R^1 t-butyl, R^3 2-hydroxyethyl, 1-o-(N-β-hydroxyethylcarbamoylmethoxy)phenoxy-3-t-butylaminopropan-2-ol] is 1.8-fold lower in ED50: 0.074 mg/kg for the first, 0.04 mg/kg for the second.

Going from `CNC(=O)COc1ccccc1OCC(O)CNC(C)(C)CO` (stereo not shown) to `CNC(=O)COc1ccccc1OCC(O)CNC(C)(C)C` (stereo not shown) [R^1 t-butyl, R^3 methyl, 1-t-butylamino-3-(o-N-methylcarbamoylmethoxyphenoxy)propan-2-ol], the ED50 falls from 0.03 mg/kg to 0.014 mg/kg (2.1-fold).

First: COCCNC(=O)COc1ccccc1OCC(O)CNC(C)C (stereo not drawn) [R^1 isopropyl, R^3 2-methoxyethyl, 1-o-(N-β-methoxyethylcarbamoylmethoxy)phenoxy-3-isopropylamino-2-propanol]
Second: CC(C)NCC(O)COc1ccccc1OCC(=O)NCCCO (stereo not shown) [R^1 isopropyl, R^3 3-hydroxypropyl, 1-o-(N-γ-hydroxypropylcarbamoylmethoxy)phenoxy-3-isopropylamino-2-propanol]
The ED50 of the first is 1.7-fold lower: 0.027 mg/kg for the first, 0.047 mg/kg for the second.

Same assay, conditions: para-substituted prior-art compounds; chloralose-anaesthetised cat, isoprenaline 0.2 μg/kg; read-out: ED50, Compound A

`CC(C)NCC(O)COc1ccc(CC(=O)NC(C)C)cc1` (stereo not shown) [Compound A, R^1 isopropyl, R^2 isopropyl, reference compound] and `CNC(=O)Cc1ccc(OCC(O)CNC(C)C)cc1` (stereo not shown) [Compound A, R^1 isopropyl, R^2 methyl, reference compound] are within 1.5-fold of each other in ED50: 0.225 mg/kg for the first, 0.335 mg/kg for the second.

Going from `CCCCNC(=O)Cc1ccc(OCC(O)CNC(C)C)cc1` (stereo not shown) [Compound A, R^1 isopropyl, R^2 n-butyl, reference compound] to `C=CCNC(=O)Cc1ccc(OCC(O)CNC(C)C)cc1` (stereo not shown) [Compound A, R^1 isopropyl, R^2 allyl, reference compound], the ED50 rises from 0.606 mg/kg to 1.47 mg/kg (2.4-fold).

Work on `CC(C)(C)NCC(O)COc1ccc(CC(N)=O)cc1` (stereo not shown) [Compound A, R^1 t-butyl, R^2 H, reference compound] yielded an ED50 of 0.136 mg/kg.
